Entries after “also recorded” stand apart in the source; their conditions may differ.
What was measured:
Type in all cases: in vivo, mouse
[1] = tested on: matrix metalloproteinase-9 (MMP-9); assay: qRT-PCR of MMP-9 mRNA in left ventricle after TAC/sham
Description: (§1) 11 to 13 week old male C57BL/6 mice were purchased from Charles River (Germany). Mice were housed in individually ventilated pathogen-free cages with free access to water and standard rodent chow. The animals were handled according to the principles of laboratory animal care (NIH publication No. 85-23, revised 1996), and animal procedures were approved by the local committee for animal care.
(§2) The first injection was performed 5 min prior to TAC or sham-operation procedure (described below) and repeated 4, 8, 12, 24, 36, 48 and 60 hrs after surgery. […]
(§3) Quantitative real-time PCR analysis was completed. […] RNA was dissolved in 100 μl of RNase-free water, and concentration was determined photometrically (absorbance at 260 nm) before storage at −80° C. […]
(§4) Real-time PCR was performed according to the manufacturer's protocol. […] Each sample was measured in triplicate wells and underwent 40 cycles of amplification on an ABI PRISM® Sequence Detection System (Applied Biosystems). CT values were determined with SDS Software 2.2 (Applied Biosystems) and relative quotients (RQ) were calculated following the ΔΔCT method (RQ target gene/GAPDH).
(§5) Statistics were calculated using Prism 4.05 (GraphPad Software Inc., CA, USA). All values are expressed as mean (M)±SEM. […]

[2] = tested on: C57BL/6 mice; assay: Cardiac biometric parameters (left ventricular weight) three days after transverse aortic constriction (TAC) or sham operation
Text: as §1
To allow for repetitive intravenous injections, a venous port was implanted. Mice were anesthetized with isoflurane 2.0 vol % (Forene®, Abbott GmbH, Germany). Body temperature was maintained at 37° C. The jugular vein was exposed and a catheter (outer diameter 0.64 mm, Dow Corning Europe, Wiesbaden, Germany) inserted into the vessel via a small incision. The catheter was secured with a silk thread and tissue adhesive (Histoacryl, Braun, Germany). Finally, the catheter was tunneled subcutaneously and connected to an extracutaneous port through an incision between scapulae.
The first injection was performed 5 min prior to TAC or sham-operation procedure (described below) and repeated 4, 8, 12, 24, 36, 48 and 60 hrs after surgery. Animals were randomly assigned into two groups, receiving either a tetrasodium salt of the compound of formula 1 (hereinafter “Eritoran tetrasodium”) or placebo. The catheter was flushed with 50 μl 0.9% NaCl before and 100 μl after each injection of 50 μl Eritoran tetrasodium (2.5 mg/ml vehicle; 5 mg/kg bodyweight/application; dosage adopted from Shimamoto et al., Circulation 2006, 114: 1270-1274) or placebo solution.
Treatment groups were separated into two subgroups, undergoing transverse aortic constriction (TAC) or sham operation. Surgery for TAC was achieved as published previously (see, e.g., Baumgarten et al., Circulation 2002, 105: 2192-2197 and Baumgarten et al., Basic Res Cardiol 2006, 101: 427-435). Mice were intubated in a supine position and mechanical ventilation was initiated (MiniVent 845, Hugo Sachs Elektronik, Germany). A left parasternal incision was performed. A suture was passed underneath the aorta and tied down on a 27 Gauge needle, which was immediately removed and allowed to achieve a standardised and previously validated decreased diameter of the aorta. For sham operation the suture was passed underneath the aorta without ligation. For analgesia, mice received a single intraperitoneal injection of 0.065 mg/kg BW buprenorphine.
Three days after TAC or sham operation, the impact on cardiac biometric parameters was investigated. Body weight was registered. Heart and lung were excised, prepared and immediately measured. Total heart weight, left ventricular weight as well as lung weight and tibia length were recorded. Ventricles were snap frozen in liquid nitrogen and kept at −80° C.
Statistics were calculated using Prism 4.05 (GraphPad Software Inc., CA, USA). All values are expressed as mean (M)±SEM. One-way ANOVA with Newman-Keuls post-hoc testing was performed for statistical analysis with the exception of TIMP and cytokine expression which were analysed with Kruskal-Wallis and Dunn's multiple comparison post-hoc testing Impact of TAC-Eritoran on IL-10 expression was analysed with Two-way ANOVA. Differences between experimental groups were considered to be significant with p<0.05.
Example 2 was completed in a manner similar to Example 1, with minor changes as described below.
With the consent of proper authority (LANUV), 12 week old male C57BL/6-mice were anesthetized with Isofluran (2.0 Vol. %) and a catheter was implanted into the right jugular vein. Afterwards, either transverse aortic constriction (TAC) or a sham operation was performed. In TAC animals, the aortic diameter was reduced by 70% with a 6-0 silk filament. Mice received either the compound of formula (I) or placebo i.v. 5 minutes prior to TAC/sham-operation and 6 h, 12 h, 24 h, 36 h, 48 h and 60 h after surgery. […]

[3] = tested on: matrix metalloproteinase-2 (MMP-2); assay: qRT-PCR of MMP-2 mRNA in left ventricle after TAC/sham
Description: as §1, §2, §3, §4, §5

[4] = tested on: atrial natriuretic peptide (ANP); assay: qRT-PCR of ANP mRNA in left ventricle after TAC/sham
Description: as §1, §2, §3, §4, §5

[5] = tested on: TIMP-4; assay: qRT-PCR of TIMP-4 mRNA in left ventricle after TAC/sham
Description: as §1, §2, §3, §4, §5

[6] = Example 1, TAC vs sham within treated groups, three days after surgery
[7] = Example 1, TAC vs sham-operated, 5 mg/kg i.v. per application, three days after surgery
[8] = Example 2, TAC treated vs TAC-placebo

SMILES | MMP-9 mRNA level [1, 6] | left ventricular weight/body weight (LVW/BW) [2, 7] | left ventricular weight/tibia length (LVW/TL) [2, 7] | left ventricular weight (LVW) ([2]; Example 1, TAC, 5 mg/kg i.v. per application, three days after surgery) | cardiac hypertrophy after TAC ([2]; Example 1, TAC, 5 mg/kg i.v. per application, three days after surgery, 5 mg/kg) | MMP-2 mRNA level [3, 6] | ANP mRNA expression ([4]; Example 1, TAC, vs TAC placebo, three days after surgery) | TIMP-4 mRNA expression ([5]; Example 1, sham and TAC groups, three days after surgery) | MMP-9 mRNA expression [1, 8] | left ventricle weight (LVW) ([2]; Example 2, TAC, i.v. 5 min prior to and 6-60 h after surgery, three days after surgery) | development of cardiac hypertrophy ([2]; Example 2, murine model of transverse aortic constriction (TAC)) | MMP-2 mRNA expression [3, 8] | ANP mRNA expression [4, 8] | TIMP-4 mRNA expression [5, 8]
CCCCCC/C=C\CCCCCCCCCC(=O)N[C@H]1[C@H](OC[C@H]2O[C@H](OP(=O)([O-])[O-])[C@H](NC(=O)CC(=O)CCCCCCCCCCC)[C@@H](OCCCCCCCCCC)[C@@H]2O)O[C@H](COC)[C@@H](OP(=O)([O-])[O-])[C@@H]1OCC[C@@H](CCCCCCC)OC.[Na+].[Na+].[Na+].[Na+] [Eritoran tetrasodium] | remained unchanged by aortic banding | did not differ from sham-operated mice | did not differ from sham-operated mice | 81.32 ± 4.21 mg | decreases cardiac hypertrophy after TAC; also recorded: diminished cardiac hypertrophy induced by pressure overload | remained unchanged by aortic banding | markedly decreased BNP but not ANP expression | no significant differences between groups | – | – | – | – | – | –
CCCCCC/C=C\CCCCCCCCCC(=O)N[C@H]1[C@H](OC[C@H]2O[C@H](OP(=O)(O)O)[C@H](NC(=O)CC(=O)CCCCCCCCCCC)[C@@H](OCCCCCCCCCC)[C@@H]2O)O[C@H](COC)[C@@H](OP(=O)(O)O)[C@@H]1OCC[C@@H](CCCCCCC)OC [compound of formula (I), α-D-Glucopyranose, 3-O-decyl-2-deoxy-6-O-[2-deoxy-3-O-[(3R)-3-methoxydecyl)-6-O-methyl-2-[[(−11Z)-1-oxo-11-octadecenyl)amino]-4-O-phosphono-β-D-glucopyranosyl]-2-[(1,3-dioxotetradecyl)amino]-1-(dihydrogen phosphate)] | – | – | – | – | – | – | – | – | higher in the TAC-placebo animals compared to the TAC groups treated | 81.32 ± 4.2 mg | prevents the development of cardiac hypertrophy | higher in the TAC-placebo animals compared to the TAC groups treated | elevated in TAC-placebo mice compared to sham and the TAC groups treated | higher
